# Patent US9387213B2, “Small molecules inhibiting oncoprotein Myc” (Health Research, Inc., priority 2012, dated 2016)
# pIC50: −log10 of the molar value.
# How the values were obtained:
# [1] = test system: SK-Mel-103; test: Suppression of proliferation / senescence induction in melanoma line; format: cell-based; conditions: Homo sapiens
# Text: (§1) 260 analogs of N77A7 were selected from several commercially available libraries of small molecules based on the structural similarities with N77A7. The compounds were screened for the ability to permanently suppress proliferation and induce senescence in cells from melanoma lines SK-Mel-19 and SK-Mel-103. Based on the above-described screening procedure, seven small molecules were identified as having IC50 values lower than that of N77A7.
# [2] = test system: SK-Mel-19; test: as above; format: cell-based; conditions: Homo sapiens, SK-MEL19
# Text: as §1
# [3] = in vitro; conditions: microsomes, pH 7.4; for Percent Remaining 0 min: 0 h; for Percent Remaining 0 min / Percent Remaining 10 min / Percent Remaining 20 min / Percent Remaining 30 min / Percent Remaining 60 min: 1 μM; for Percent Remaining 30 min: 0.5 h; for Percent Remaining 60 min: 1 h
# Description: Additionally, several of the N77A7 analogs were subjected to the test for the metabolic stability in human and mouse liver microsomes. Briefly, 1 μM of test compound was incubated with microsomal protein (human liver microsomes: 0.5 mg/mL; mouse liver microsomes 0.5 mg/mL) and buffer (100 mM potassium phosphate, pH 7.4, 5 mM magnesium chloride). The positive control was 5 μM testosterone. The reaction was equilibrated at 37 C in a shaking water bath for 3 to 5 minutes. After equilibration, an aliquot was removed and combined with 50/50 acetonitrile/water containing 0.1% formic acid and internal standard to terminate the reaction. 1 mM NADPH was immediately added and the tube was returned to the water bath. Five sample time points were taken (0, 10, 20, 30, and 60 minutes). Aliquots were removed and combined with 50/50 acetonitrile/water containing 0.1% formic acid and internal standard to terminate the reaction. The samples were mixed for 10 minutes and centrifuged. The supernatant from each sample was diluted (if necessary) and then transferred to vials for analysis by LC-MS/MS for the test compound and internal standard without calibration standards. The percent remaining at each time point was determined by the test compound's peak area response ratio versus the 0 minute sample.
# [4] = test system: HO15.19-Vector cells; test: Cell cycle distribution by FACS; format: cell-based, rat; conditions: 3 μM
# [5] = test system: SK-Mel-103 xenografts; test: SK-Mel-103 xenograft efficacy study CBL2.5-01-Ms-2, N77A7 in Captisol; format: in vivo, athymic nude mice
# Description: FIG. 9 illustrates the effect of N77A7 on survival of SK-Mel-103 tumor-bearing mice. […] When at least one tumor on the majority of mice reached ˜50 mm^3, mice were randomly divided into treatment groups. Starting on Day 1 of treatment, mice were treated daily by ip injection of either 50 mg/kg N77A7 or the equivalent amount of Captisol vehicle. Mice were followed until tumors reached 1000 mm^3 or tumors ulcerated or 28 days of treatment, whichever came first. The proportion of surviving mice is depicted in the graph. The survival of N77A7 and vehicle control-treated mice was compared using the Log Rank test. p-value<0.05 indicates significance.
# FIG. 10 illustrates the effect of Captisol and N77A7 on mouse weight. (A) Mean change in body weight as determined by calculating the % starting weight, which is the weight of a mouse on Day X divided by the weight of the same mouse on Day 1 and multiplied by 100. […] (C)-(D) Changes in mouse weight for individual mice in each treatment group calculated as described in (A).
# FIG. 11 illustrates the effect of 50 mg/kg N77A7 on tumor growth. (A) Athymic nude mice were inoculated with 1×10^6 SK-Mel-103 tumor cells in each rear flank. When at least one tumor on a mouse was ˜50 mg for the majority of mice, treatment commenced. Mice were treated once daily ip with 50 mg/kg N77A7 or an equivalent amount of vehicle control (i.e., Captisol). Tumors were measured by digital caliper on Day 1 and then twice per week thereafter. Tumor measurements were made blind to the treatment each mouse received. Data is presented as the mean tumor volume on each measurement day. Comparison of tumor volume between treatment groups was made using unpaired t-tests. P value <0.05 is significant. (B) Same as (A) except data is presented as mean fold tumor growth, which was calculated by dividing the mean tumor volume on Day X by that of the same tumor on Day 1.
# FIG. 12 illustrates the effect N77A7 on tumor doubling time and the time to reach 1000 mm^3 Growth curves for each tumor within each treatment group were plotted (tumor volume vs days from start of treatment). Regression analysis using the exponential trendline in Excel was used to generate an equation for each curve. From the equation, the tumor doubling time (A) and the time to reach the experimental endpoint of 1000 mm^3 was calculated. Error bars represent the standard error of the mean and p values were obtained using unpaired, two-sided t-tests.
# Animal study protocol CBL2.5-01-Ms-2. N77A7 formulated in Captisol was prepared. Both N77A7 and Captisol vehicle were prepared weekly according to the needs of the study. SK-Mel-103 melanoma cells (1×10^6 cells/inoculation were inoculated into each rear flank of 20 athymic nude (7.5 week old males) on Sep. 11, 2009. Prior to commencement of treatment, mice were randomly assigned to treatment groups with 2 of 4 mice per cage assigned to the Captisol vehicle control group and the other 2 mice to the 50 mg/kg N77A7 group. When at least one tumor per mouse for the majority of mice reached ˜50 mm^3 in tumor volume, treatment commenced. The first day of treatment (Day 1) was Sep. 21, 2009. Administration of N77A7 and vehicle control was performed daily by ip administration of 2.5 mg/ml solution of N77A7 or equivalent amount of vehicle control at 500 μl/25 g mouse body weight. Mouse body weight measurements were performed prior to commencement of treatment and Mondays-Wednesdays-Fridays thereafter. Administration volumes were adjusted during the course of the study based on the latest weight measurements. Treatments were administered. Tumor measurements were performed without prior knowledge of which treatment group each mouse belonged (i.e., blinded to treatment groups). When at least one tumor of a mouse reached 1000 mm^3 or tumor ulceration was evident, mice were euthanized according to the approved IACUC protocol (CBL 1096M). The experiment was completed on Day 18 (Oct. 8, 2009). […]
# [6] = 50 mg/kg daily ip in Captisol, necropsy of several mice
compound,measurement,setting,value
CCN(CC)c1ccc(/C=N/NC(=O)Cn2nnc(-c3ccccc3)n2)c(O)c1 [Compound N77A7],pIC50,[1],5.52
same,pIC50,[2],5.52
same,Percent Remaining 0 min,[3]; human,100%
same,Percent Remaining 10 min,[3]; human,87%
same,Percent Remaining 20 min,[3]; human,30%
same,Percent Remaining 30 min,[3]; human,1− Percent
same,Percent Remaining 60 min,[3]; human,<1.0%
same,half-life at 1 µM,[3]; human,13.1 min
same,microsomal CLint at 1 μM,[3]; human,110 µL/min/mg
same,Percent Remaining 0 min,[3]; mouse,100%
same,Percent Remaining 10 min,[3]; mouse,25%
same,Percent Remaining 20 min,[3]; mouse,8.9%
same,Percent Remaining 30 min,[3]; mouse,4.5%
same,Percent Remaining 60 min,[3]; mouse,<1.0%
same,half-life at 1 µM,[3]; mouse,5.2 min
same,microsomal CLint at 1 μM,[3]; mouse,270 µL/min/mg
same,HO15.19-Vector G2,[4]; percent of cells in G2 phase,23.88%
same,HO15.19-Vector S,[4]; percent of cells in S phase,21.22%
same,treated mice remaining in the study (survival),"[5]; 50 mg/kg daily ip in Captisol, after 14 days of treatment, all Captisol-treated mice euthanized, logrank P=0.0083",5 of the 10
same,compound precipitation at necropsy,[5]; [6],no signs of compound precipitation within the abdominal cavity
same,peritonitis at necropsy,[5]; [6],no signs of peritonitis
same,maximum tumor growth inhibition,"[5]; 50 mg/kg daily ip in Captisol, versus Captisol vehicle",~45%
same,effect on mouse weight,"[5]; 50 mg/kg daily ip, 14 consecutive days of treatment",did not cause any weight loss
same,growth delay in reaching the study endpoint (1000 mm3),"[5]; 50 mg/kg daily ip, from regression of growth curves, p=0.0004",5 days
same,increase of doubling time for tumor growth,"[5]; 50 mg/kg daily ip, from regression of growth curves, p=0.0157",1 days
same,starting tumors left in the study by Day 14,"[5]; 50 mg/kg daily ip, control <50% (8/18)",80%
